Data taken from patent US20220257698A1, “ANGIOTENSIN TYPE 2 (AT2) RECEPTOR AGONISTS FOR USE IN THE TREATMENT OF CANCER” (LANTHIOPEP B.V., priority 2019, published 2022).

Key:
U87MG glioblastoma CDX = test: Subcutaneous U87MG glioblastoma CDX: tumor weight and time of tumor progression; format: in vivo, cd1 nu/nu mice (human GBM cell line); settings: for tumor weight [%]: relative to vehicle = 100
Procedure: Effects of KcAng(1-7) were evaluated in vivo in a subcutaneous GBM xenograft model in nude mice. Insurgence of neurologic phenomena and differences in the survival rates were evaluated. Human GBM cell lines U87MG and U251MG were used. Cell lines were grown in DMEM nutrient mixture supplemented with 10% fetal bovine serum, 1% penicillin/streptomycin, and 25 mM HEPES buffer. All cell lines were cultured at 37° C. in a humidified atmosphere consisting of 5% CO2 and 95% air. Medium was changed every 2 days and the cell morphology was evaluated under microscope daily.
Six-week-old male athymic nude mice (age 5-7 weeks) were housed with free access to food and water in a temperature-controlled room. Each group is represented by 10 xenograft cd1 nu/nu mice. The mice were injected s.c. in the right distal hind limb with one million of cultured human tumor cell lines suspended in 0.15 mL of 2:1 solution of PBS/Matrigel (Matrigel BD Biosciences). Xenografts were measured every four days with a digital caliper in two perpendicular dimensions. Tumor volume was calculated according to the following formula:
Tumor volume=(tumor width)×(tumor width)×(tumor length)÷2
At the end of experiments, mice were euthanized and tumors removed. Weight loss or other signs of distress such as hunched posture were checked during and after treatments.
Efficacy of treatment was evaluated by: (1) the size of tumors (vehicle control and treated), (2) the relative weight at the end of experiment, and (3) the indirect evaluation of angiogenesis by determining hemoglobin levels.
In vivo tumor response to treatment was evaluated using the following parameters: (i) Complete response (CR): defined as the disappearance of a measurable lesion, (ii) Partial response (PR): defined as a reduction of greater than 50% of the sum of the products of the cross-sectional diameters of the measurable lesion, (iii) Stable disease (SD): defined as a reduction of less than 50% or an increase of less than 25% in the sum of the products of the cross-sectional diameters of the measurable lesions, (iv) Tumor progression (TP): defined as an increase of greater than […] in the sum of the products of the cross-sectional diameters of the measured lesion, (v) Time to progression (TTP) defining the tumor growth delay. Tumor progression was calculated through the analysis of bioluminescence imaging (BLI) photon counts and when possible through the analyses of tumor volumes calculated by magnetic resonance imaging (MRI), (vi) Disease free survival (DFS) is the time elapsed between the time point at which no luciferase activity is detectable anymore and the death of the animal, (vii) Overall survival (OS) is the time elapsed between tumor inoculation and death of the animal. […] Luciferase transfected cells were used for bioluminescence evaluations.
Data are presented as mean and standard error of the mean (SEM) or standard deviation (SD). Statistical comparisons between control and treated groups were established by carrying out the Kruskal-Wallis test (a nonparametric one-way analysis of variance) or the Mann-Whitney test (in the case of two groups). The level of significance was corrected by multiplying the P value by the number of comparisons performed (n) according to […] correction. TP, TTP and DFS were analyzed by Kaplan-Meier curves and Gehan's generalized Wilcoxon test. All statistical analyses were undertaken using SPSS 10.0.
Mice with U87MG cell CDX were randomized at day 0. KcAng(1-7) was injected daily subcutaneously (0.2 μg/kg) starting at day 0 until the (ethical) endpoint maximally at day 42. TMZ was administered at 16 mg/kg during 5 consecutive days, that is from […]. Volumetric evaluation of the tumor was performed every 4 days and tumor weight was measured at the end of the experiment.
Synergism was determined using the methods described in Clarke et al. Breast Cancer Research and Treatment 46:255-278 (1997).
Mice with U87MG cell CDX were randomized at day 0. […]

U251MG glioblastoma CDX = test: Subcutaneous U251MG glioblastoma CDX: time of tumor progression; format: in vivo, cd1 nu/nu mice (human GBM cell line); settings: KcAng(1-7) 1 μg/kg/d, Losartan 20 mg/kg/d, or both
Procedure: Effects of KcAng(1-7) were evaluated in vivo in a subcutaneous GBM xenograft model in nude mice. Insurgence of neurologic phenomena and differences in the survival rates were evaluated. Human GBM cell lines U87MG and U251MG were used. Cell lines were grown in DMEM nutrient mixture supplemented with 10% fetal bovine serum, 1% penicillin/streptomycin, and 25 mM HEPES buffer. All cell lines were cultured at 37° C. in a humidified atmosphere consisting of 5% CO2 and 95% air. Medium was changed every 2 days and the cell morphology was evaluated under microscope daily. Six-week-old male athymic nude mice (age 5-7 weeks) were housed with free access to food and water in a temperature-controlled room. Each group is represented by 10 xenograft cd1 nu/nu mice. […] Xenografts were measured every four days with a digital caliper in two perpendicular dimensions. Tumor volume was calculated according to the following formula: In vivo tumor response to treatment was evaluated using the following parameters: […] […] TP, TTP and DFS were analyzed by Kaplan-Meier curves and Gehan's generalized Wilcoxon test. […]

Lys-Asp-Arg-Val-Abu/Ala-Ile-His-Abu/Ala (KDRVAIHA; not fully specified; cyclic thioether (Abu/Ala bridge); VARIANT (5)..(5) /replace=“Abu”; VARIANT (8)..(8) /replace=“Abu”; SITE (1)..(8) /note=“Variant residues given in the sequence have no preference with respect to those in the annotations for variant positions”) [KcAng(1-7)]
Time of tumor progression - TTP, mean (days ± SD) (U87MG glioblastoma CDX; KcAng(1-7) 0.2 μg/kg/d s.c., TMZ 16 mg/kg for 5 days, or both): 12.80 ± 0.54 days | increase of the time of tumor progression (U87MG glioblastoma CDX; KcAng(1-7) 0.2 μg/kg/d vs vehicle): approximately 2 days | Time of tumor progression - TTP, mean (days ± SEM) (U87MG glioblastoma CDX; KcAng(1-7) 1 μg/kg/d s.c., Losartan 20 mg/kg/d i.p., or both): 15.2 ± 0.9 days | Tumor weight, mean (mg ± SEM) (U87MG glioblastoma CDX; KcAng(1-7) 1 μg/kg/d s.c., Losartan 20 mg/kg/day i.p., or both): 580 ± 27 mg | Tumor weight, mean (mg ± SD) (U87MG glioblastoma CDX; end of experiment, KcAng(1-7) 0.2 μg/kg/d s.c., TMZ 16 mg/kg for 5 days, or both): 830 ± 57 mg | tumor weight [%] (U87MG glioblastoma CDX; KcAng(1-7) 0.2 μg/kg/d, TMZ 16 mg/kg, or both): 79.8% | tumor weight [%] (U87MG glioblastoma CDX; KcAng(1-7) 1 μg/kg/d, Losartan 20 mg/kg/d, or both): 55.8% | Time of tumor progression - TTP, mean (days ± SEM) (U251MG glioblastoma CDX): 14.4 ± 0.8 days
